Experimental data taken from US5045566A, “Novel imidate insecticides” (ICI Americas Inc., priority 1989, dated 1991).

How the values were obtained:
Type in all cases: in vivo
[1] = system: Maize weevil [Sitophilus zeamais (Motschulsky)]; assay: Maize weevil on dipped corn seeds (MW), 48 hours; details: percent in solution, adult weevils
Experimental: The compounds in Tables 1 and 2 above were tested for insecticidal activity using the following testing procedures. LC50 values, based on the results of these tests and calculated according to dosage-mortality curves, are expressed in Table 3.
Maize weevil [Sitophilus zeamais (Motschulsky)]:
Test compounds were diluted in a 50:50 acetone:water solution. Four corn seeds [Zea mays (L.)] which had been immersed in test solutions for 2-3 seconds and allowed to dry were placed in containers together with 10 adult weevils. The containers were covered and kept at a temperature of about 25° C. Mortality was recorded after 48 hours. Test concentrations ranged from 0.01% down to that at which 50% mortality occurred. The LC50 values are expressed below in Table 3 under the heading "MW" in terms of percent of the test compound in solution.

[2] = system: Tobacco Budworm [Heliothis virescens (Fabricius)] eggs; assay: Tobacco budworm eggs (TBW-E); details: percent in solution; 2-day old eggs
Outline: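 Paper-towel patches of 2-day-old eggs dipped in acetone solutions of compound (0.1% downward), held on larval rearing medium at 78° F. Mortality scored once all control eggs had hatched and larvae were feeding; LC50 from dosage-mortality curves, expressed as percent compound in solution.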

[3] = system: Housefly [Musca domestica]; assay: Housefly contact mortality in dishes (HF), 48 hours; details: μg of test compound per 25 female flies
Outline: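 Dry-film exposure of 25 female houseflies per cage, 48 h; LC50 as μg per 25 flies.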

[4] = system: Cabbage Looper [Trichoplusia ni (Hubner)]; assay: Cabbage looper leaf dip (CL), 3-5 days; details: percent in solution, second-instar larvae
Outline: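 Squash cotyledons dipped 2-3 s in compound in 50-50 acetone-water, dried, then infested with 5 second-instar larvae and held at high humidity. Mortality scored after 3-5 days at concentrations from 0.1% downward. LC50 from dosage-mortality curves, expressed as percent compound in solution.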

[5] = system: Black Bean Aphid [Aphis fabae (Scop.)]; assay: Black bean aphid spray test on nasturtium (BBA), 48 hours; details: percent of test compound in sprayed solution
Outline: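 LC50, given as percent test compound in the sprayed liquid, was calculated from dosage-mortality curves using concentrations from 0.05% downward. Sprays in 50:50 acetone-water went to runoff on ~5 cm nasturtiums carrying 25-50 aphids of mixed ages, one day after infestation. Deaths were counted 48 h later under greenhouse conditions.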

| SMILES | LC50 MW [1] [%] | LC50 TBW E (eggs) [2] [%] | LC50 HF [3] [µg] | LC50 CL [4] [%] | LC50 BBA [5] [%] |
| --- | --- | --- | --- | --- | --- |
| CC(C)C(=Nc1ccc(F)c(Br)c1)OCc1ccc(F)c(Oc2ccc(Cl)cc2)c1 [Compound 379] | > 0.01 | 0.02 | < 100 | 0.00075 | 0.0006 |
| CC(C)C(=Nc1ccc(Br)c(Br)c1)OCc1ccc(F)c(Oc2ccc(F)cc2)c1 [Compound 383] | > 0.01 | 0.038 | < 100 | 0.00029 | 0.0006 |
| CC(C)C(=Nc1ccc(Br)c(Br)c1)OCc1ccc(F)c(Oc2ccccc2)c1 [Compound 384] | > 0.01 | 0.025 | < 100 | > 0.1 | 0.0008 |
| CC(C)C(=Nc1ccc(I)c(Cl)c1)OCc1ccc(F)c(Oc2ccc(F)cc2)c1 [Compound 385] | > 0.01 | > 0.1 | < 100 | > 0.1 | > 0.05 |
| CC(C)C(=Nc1cccc(Br)c1)OCc1ccc(F)c(Oc2ccc(Cl)cc2)c1 [Compound 386] | > 0.01 | > 0.1 | < 100 | 0.0012 | 0.002 |
| CC(C)C(=Nc1ccc(Cl)c(C(F)(F)F)c1)OCc1ccc(F)c(Oc2ccccc2)c1 [Compound 388] | > 0.01 | > 0.1 | < 100 | 0.0012 | 0.0006 |
| CC(C)C(=Nc1cccc(I)c1)OCc1cccc(Oc2ccc(Cl)cc2)c1 [Compound 389] | > 0.01 | > 0.1 | < 100 | 0.00069 | 0.003 |
| CC(C)C(=Nc1cccc(Cl)c1)OCc1ccc(F)c(Oc2ccc(Cl)cc2)c1 [Compound 390] | > 0.01 | 0.045 | < 100 | 0.0021 | 0.0006 |
| CC(C)C(=Nc1ccc(C#N)cc1)OCc1ccc(F)c(Oc2ccc(Cl)cc2)c1 [Compound 392] | > 0.01 | 0.039 | < 100 | 0.00034 | 0.001 |
| CC(C)C(=Nc1ccc(C#N)cc1)OCc1cccc(Oc2ccc(Cl)cc2)c1 [Compound 393] | > 0.01 | > 0.1 | < 100 | 0.00037 | > 0.05 |
| CC(C)C(=Nc1ccc(C#N)cc1)OCc1ccc(F)c(Oc2ccc(F)cc2)c1 [Compound 394] | > 0.01 | 0.05 | < 100 | 0.00025 | 0.002 |
| CC(C)C(=Nc1ccc(F)c(Cl)c1F)OCc1ccc(F)c(Oc2ccc(Cl)cc2)c1 [Compound 395] | 0.004 | 0.018 | 8.6 | < 0.1 | 0.0001 |
| Cc1cc(N=C(OCc2ccc(F)c(Oc3ccc(F)cc3)c2)C(C)C)ccc1F [Compound 396] | > 0.01 | < 0.1 | < 100 | 0.0017 | 0.0002 |
| Cc1cc(N=C(OCc2cccc(Oc3ccc(Cl)cc3)c2)C(C)C)ccc1F [Compound 397] | > 0.01 | < 0.1 | < 100 | 0.0019 | 0.002 |
| CC(C)C(=Nc1ccc(F)c(Br)c1)OCc1cccc(Oc2ccc(Cl)cc2)c1 [Compound 398] | > 0.01 | < 0.1 | < 100 | < 0.1 | 0.002 |
